Where a name gives a salt, the structure may show the parent alone. Values belong to the molecule of their own block, whether it stands above or below them.
Legend:
[1] = system: SHR (Spontaneously Hypertensive Rats); experiment: Antihypertensive activity in SHR; type: in vivo, Male SHR (Spontaneously Hypertensive Rats); conditions: no anesthesia
Method: Male SHR (14 to 16 weeks old) fasted for more than 16 hours were used. […] When one hour or more passed after the rats woke up out of the ether, they were administered the test compound orally. The blood pressure was measured with the pressure transducer via the catheter inserted into the femoral artery.
The test compound was dissolved in a small quantity of ethanol and diluted with water to be adjusted for administration.
Changes in the mean blood pressure were obtained from the equation mentioned below. The Basic and Clinical Study, vol. 14, p. 4495 (1980) is a useful literature to be referred to for making this kind of experiment. [formula]

Ca^++ contraction = experiment: Activity of calcium ion blocking action (thoracic aorta strips); design: species or system male wister rat
Method: Spillay cut strips of thoracic arota were obtained from male wister rat and mounted in K-depalarized solution. 30-40 min. after treatment of compound (140) hydrochloride various concentration of Ca^++ were applied and concentration-response curve of calcium ion (Ca^++) was obtained.

[2] = system: cerebral blood vessels (common carotid artery); experiment: Action on cerebral blood vessels (carotic blood flow) in anesthetized dog; type: in vivo, male beagle dog; conditions: 3 μg/kg i.v.
Method: (§1) A male beagle dog weighing about 10 kg was anesthetized with sodium pentobarbital (35 mg/kg i.v.). The test compound was dissolved in a small quantity of ethanol, diluted with an isotonic sodium chloride solution, and was injected into the right femoral vein.
(§2) The carotic blood flow (CBF) and the femoral blood flow (FBF) were measured with the electromagnetic blood flowmeter (MFV-1200 made by Japan Photoelectric Co., Ltd.) via probe for measuring the blood flow volume set in the right common carotid artery and the left femoral artery of the male beagle dog respectively.

myocardium = experiment: Action on myocardium (Max dLVP/dt) in anesthetized dog; type: in vivo, male beagle dog; conditions: 10 μg/kg i.v.
Method: as §1
The left ventricular pressure (LVP) was measured with the pressure transducer via the cannula which was inserted from the left common carotid artery into the left ventricle and the recorded pressure was differentiated to calculate the max (dLVP/db), thus measuring the pharmacological action of the test compound on the myocardium. […] The Basic and Clinical Study, vol. 14, 4477 (1980) is a useful literature to be consulted with for making this kind of experiment. It is apparent from Table 6 that the compound of this invention has less exciting action on the myocardium than nicardipine.

conscious rats = experiment: Antihypertensive activity by oral administration in conscious rats; type: in vivo, Male Wistar rats; conditions: 10 mg/kg oral
Method: When one hour or more passed after the rats were aroused, they were administered the test compound orally.
The blood pressure in the femoral artery was recorder and changes in the mean blood pressure were obtained from the following equation. [formula]

platelet aggregation = experiment: In vitro inhibitory activity of platelet aggregation; type: cell-based, male Hartley guinea pigs; conditions: AA 75 μM; for inhibition at 100 µM: Cavia porcellus, Platelet, Conc. 100 μM
Method: The in vitro platelet aggregation inhibiting activities of the compounds of the invention were examined by using guinea pigs. Blood was withdrawn by cardiac puncture from male Hartley guinea pigs weighing […]. A mixture of a 3.8% trisodium citrate solution and the blood in a ratio of 1:9 was centrifuged at a speed of 800 rpm for 10 minutes. The upper layer was separated as platelet-rich plasma (PRP). The lower layer was further centrifuged at a separated as platelet-poor plasma (PPP). The number of platelets was adjusted to 5×10^5 /μl to 6×10^5 /μl by filuting the PRP with PPP. 25 microliters of the test compounds prepared as shown below was added in an amount of 25 microliters of PRP after the adjustment, and the mixture was pre-incubated at 37° C. for 2 minutes, and then 75 μM (final) of AA was added. By using an aggregometer (37° C., 1,100 rpm), changes in transmission were recorded.
The test compound was dissolved in ethanol to a concentration of 10 mg/ml. When its activity was measured, it was used after being diluted with phosphate buffer (pH 7.4). Furthermore, after dilution with the buffer, the test compound was left to stand at 0° C. for 4 hours, and the activity of the test compound was similarly measured.
The rate of inhibition of platelet aggregation was determined from the following equation. [formula]

mean blood pressure = experiment: Action on mean blood pressure in anesthetized dog; type: in vivo, male beagle dog; conditions: 10 μg/kg i.v.
Method: as §1
The mean blood pressure (MBP) was measured with the pressure transwer via the cannula inserted into the right femoral artery of the male beagle dog. The changes in the blood pressure after the administration of the test compound are shown in percentages in Table 5.

[3] = prior art; cited from earlier work
[4] = system: peripheral blood vessels (femoral artery); experiment: Action on peripheral blood vessels (femoral blood flow) in anesthetized dog; type: in vivo, male beagle dog; conditions: 3 μg/kg i.v.
Method: as §1, §2

[5] = Light stability in methanol solution; type: physicochemical; conditions: light, read-out: Remaining percentage
Method: 1 mg of compound (156) hydrochloride was dissolved in 100 ml of methanol. The solution was placed in a transparent glass test tube, and after the test tube was tightly stoppered, it was allowed to stand by the window of the laboratory. Part of the solution was taken at regular intervals and subjected to high performance liquid chromatograph to determined the remaining quantity of compound (156) hydrochloride contained in the solution. The same experiment was conducted with nicardipine hydrochloride as the control.

anesthetized rats = experiment: Hypotensive activity by intravenous administration in anesthetized rats (Example 23); type: in vivo, Male Wistar rats
Method: Male Wistar rats weighing about 250 g were used. They were anesthetized with urethane (500 mg/kg) and α-chloralose (100 mg/kg) intraperitoneal injection.
The test compound was dissolved in a small quantity of ethanol and the solution, which was then diluted with physiological saline to have a final concentration of ethanol kept at 5% or lower, was intravenously injected through a catheter inserted into the femoral vein.
The blood pressure was recorded with the pressure transducer via the catheter inserted into the common carotid artery of the rats.
Hypotensive activity of the test compound was indicated by the dose (ED20 μ/kg) required for decreasing the mean blood pressure by 20% as compared with the mean blood pressure before the administration.
To determine the duration of the hypotensive action of the test compound, half-life of hypotensive action T^1 /2) was measured.

IC50 (Ca^++ contraction; 30-40 min after treatment, K-depolarized solution, read-out: 50% inhibited concentration to Ca^++ contraction): 0.1 nM
Compound: COC(=O)C1=C(C)NC(C)=C(C(=O)OCC(C)(C)CN(C)Cc2ccccc2)C1c1cc([N+](=O)[O-])ccc1F (stereo not shown) [(140) hydrochloride, 3-(N-Benzyl-N-methylamino)-2,2-dimethylpropyl methyl 2,6-dimethyl-4-(2-fluoro-5-nitrophenyl)-1,4-dihydropyridine-3,5-dicarboxylate]
Changes in MBP ([1]; 3 mg/kg oral, 30 min.): -68 ± 2 mmHg
Changes in MBP ([1]; 3 mg/kg oral, 60 min.): -69 ± 4 mmHg
Changes in MBP ([1]; 3 mg/kg oral, 90 min.): -65 ± 2 mmHg
Changes in MBP ([1]; 3 mg/kg oral, 2 hr.): -65 ± 2 mmHg
Changes in MBP ([1]; 3 mg/kg oral, 3 hr.): -65 ± 2 mmHg
Changes in MBP ([1]; 3 mg/kg oral, 5 hr.): -55 mmHg
Changes in MBP ([1]; 3 mg/kg oral, 7 hr.): -39 ± 5 mmHg
Changes in CBF ([2]; 0.5 min.): +7%
Changes in CBF ([2]; 1 min.): +14%
Changes in CBF ([2]; 2 min.): +17%
Changes in CBF ([2]; 5 min.): +22%
Changes in CBF ([2]; 10 min.): +22%
Changes in Max dLVP/dt (myocardium; 0.5 min.): 0 ± 2%
Changes in Max dLVP/dt (myocardium; 1 min.): +2 ± 2%
Changes in Max dLVP/dt (myocardium; 2 min.): +2 ± 3%
Changes in Max dLVP/dt (myocardium; 5 min.): -6 ± 3%
Changes in Max dLVP/dt (myocardium; 10 min.): +6 ± 4%
Changes in Max dLVP/dt (myocardium; 15 min.): +4 ± 4%
Changes in mean blood pressure (conscious rats; after 30 min): -36.7 mmHg
Changes in mean blood pressure (conscious rats; after 60 min): -35.4 mmHg
Changes in mean blood pressure (conscious rats; after 90 min): -36.3 mmHg
Changes in mean blood pressure (conscious rats; after 2 hr): -36.2 mmHg
Changes in mean blood pressure (conscious rats; after 3 hr): -33.8 mmHg
Changes in mean blood pressure (conscious rats; after 5 hr): -32.6 mmHg
Changes in mean blood pressure (conscious rats; after 7 hr): -31.7 mmHg
inhibition at 100 µM (platelet aggregation): -1.1 ± 1.4%
Changes in MBP (mean blood pressure; 0.5 min.): -6 ± 1%
Changes in MBP (mean blood pressure; 1 min.): -10 ± 1%
Changes in MBP (mean blood pressure; 2 min.): -15 ± 1%
Changes in MBP (mean blood pressure; 5 min.): -20 ± 2%
Changes in MBP (mean blood pressure; 10 min.): -23 ± 2%
Changes in MBP (mean blood pressure; 15 min.): -28 ± 3%

Compound: CCOC(=O)C1=C(C)NC(C)=C(C(=O)OC)C1c1cccc(Cl)c1Cl (stereo not shown) [Felodipine, 4-(2,3-dichlorophenyl)-2,6-dimethyl-1,4-dihydropyridine-3,5-dicarboxylic acid-3-methyl ester-5-ethyl ester, reference compound]
solubility in water [3]: very purely soluble in water
Changes in mean blood pressure (conscious rats; after 30 min): -34 mmHg
Changes in mean blood pressure (conscious rats; after 60 min): -27 mmHg
Changes in mean blood pressure (conscious rats; after 90 min): -24 mmHg
Changes in mean blood pressure (conscious rats; after 2 hr): -22 mmHg
Changes in mean blood pressure (conscious rats; after 3 hr): -17 mmHg
Changes in mean blood pressure (conscious rats; after 5 hr): -10 mmHg
Changes in mean blood pressure (conscious rats; after 7 hr): -5 mmHg

remaining at 2 h ([5]; 2 hr.): 98%
remaining at 4 h ([5]; 4 hr.): 87%
remaining at 6 h ([5]; 6 hr.): 78%
Compound: COC(=O)C1=C(C)NC(C)=C(C(=O)OCCN(C)Cc2ccccc2)C1c1cccc([N+](=O)[O-])c1 (stereo not drawn) [Nicardipine hydrochloride, 4-(3-nitrophenyl)-2,6-dimethyl-1,4-dihydropyridine-3,5-dicarboxylic acid-3-methyl ester-5-β-(N-benzyl-N-methylamino) ethyl hydrochloride, reference compound]
time to peak of FBF after the administration [4]: 2 min
Changes in FBF ([4]; 0.5 min.): +7 ± 7%
Changes in FBF ([4]; 1 min.): +20 ± 9%
Changes in FBF ([4]; 2 min.): +24 ± 0%
Changes in FBF ([4]; 5 min.): +17 ± 10%
Changes in FBF ([4]; 10 min.): +6 ± 0%
Changes in MBP ([1]; 10 mg/kg oral, 30 min.): -28 ± 13 mmHg
Changes in MBP ([1]; 10 mg/kg oral, 60 min.): -29 ± 11 mmHg
Changes in MBP ([1]; 10 mg/kg oral, 90 min.): -17 ± 14 mmHg
Changes in MBP ([1]; 10 mg/kg oral, 2 hr.): -18 ± 9 mmHg
Changes in MBP ([1]; 10 mg/kg oral, 3 hr.): -12 ± 8 mmHg
Changes in MBP ([1]; 10 mg/kg oral, 5 hr.): -10 mmHg
Changes in MBP ([1]; 10 mg/kg oral, 7 hr.): -11 ± 6 mmHg
50% inhibited concentration to Ca^++ contraction relative to compound (140) hydrochloride (Ca^++ contraction; as much as that of compound (140) hydrochloride): twice
time to peak of CBF after the administration [2]: one
Changes in CBF ([2]; 0.5 min.): +7%
Changes in CBF ([2]; 1 min.): +14%
Changes in CBF ([2]; 2 min.): +13%
Changes in CBF ([2]; 5 min.): +5%
Changes in CBF ([2]; 10 min.): +3%
Changes in Max dLVP/dt (myocardium; 0.5 min.): +5 ± 3%
Changes in Max dLVP/dt (myocardium; 1 min.): +10 ± 7%
Changes in Max dLVP/dt (myocardium; 2 min.): +38 ± 23%
Changes in Max dLVP/dt (myocardium; 5 min.): +42 ± 24%
Changes in Max dLVP/dt (myocardium; 10 min.): +31 ± 18%
Changes in Max dLVP/dt (myocardium; 15 min.): +6 ± 11%
Changes in mean blood pressure (conscious rats; after 30 min): -26.7 mmHg
Changes in mean blood pressure (conscious rats; after 60 min): -19.2 mmHg
Changes in mean blood pressure (conscious rats; after 90 min): -18.3 mmHg
Changes in mean blood pressure (conscious rats; after 2 hr): -16.3 mmHg
Changes in mean blood pressure (conscious rats; after 3 hr): -7.1 mmHg
Changes in mean blood pressure (conscious rats; after 5 hr): +1.3 mmHg
Changes in mean blood pressure (conscious rats; after 7 hr): +2.5 mmHg
ED20 (anesthetized rats; Rattus norvegicus, iv, anesthetized Wistar rats about 250 g, read-out: ED20 (dose decreasing mean blood pressure by 20%)): 0.021 mg/kg
Duration T1/2 (half-life of hypotensive action) (anesthetized rats; i.v., dose 30): 4.2 min
inhibitory activity of platelet aggregation (platelet aggregation; 100 μM): has inhibitory activity of platelet aggregation
inhibition at 100 µM (platelet aggregation): 35.2 ± 9.4%
time to peak of antihypertensive action after the administration (mean blood pressure): one
Changes in MBP (mean blood pressure; 0.5 min.): -17 ± 2%
Changes in MBP (mean blood pressure; 1 min.): -18 ± 3%
Changes in MBP (mean blood pressure; 2 min.): -16 ± 3%
Changes in MBP (mean blood pressure; 5 min.): -11 ± 4%
Changes in MBP (mean blood pressure; 10 min.): -7 ± 4%
Changes in MBP (mean blood pressure; 15 min.): -8 ± 5%

Reference: patent US4578395A, “Certain aralkylaminoalkyl esters of 1,4 dihydropyridines as antihypertensive” (Teijin Limited, priority 1983, dated 1986)
